Source: patent US10941136B2, “Quinazoline derivative or its salt and pharmaceutical composition comprising the same” (YUHAN CORPORATION, priority 2016, dated 2021)

What was measured:
Type in all cases: biochemical
[1] = molecular target: T1, PI3Kγ (p120γ)(h) (Homo sapiens, UniProt P48736); experiment: PI3K-HTRF in vitro enzyme assay, PI3Kγ; conditions: enzyme 0.4 μg/ml
T1 construct: purchased Upstate (Millipore Co) #14-558
Protocol: (§1) The compounds of the present invention were tested for the activity of phosphatidylinositol 3-kinase delta (PI3K) by using a PI3K enzyme-homogeneous time resolved fluorescence (PI3K-HTRF) kit, which is available under Upstate™ kit (Millipore Co, Billerica, Mass., USA). This kit system measures indirectly the amount of PIP3 produced via PI3K by detecting competitive inhibition of fluorescence complex formation.
(§2) There were used three kinds of buffer solutions, i.e., reaction buffer, stop solution, and detection solution. The reaction buffer was prepared by diluting Reaction Buffer (provided in Update™ kit) with distilled water 4 times and adding DTT to a concentration of 5 mM. The stop solution was prepared by combining STOP A and B Solutions (provided in Update™ kit) in a ratio of 3:1. The detection solution was prepared by combining Detection Solution A, B and C (provided in Update™ kit) in a ratio of 1:1:18. A substrate solution and an ATP solution were prepared by diluting the 1 mM PIP2 (phosphatidyl inositol 4,5 bi-phosphate) stock solution (provided in Update™ kit) and 10 mM ATP (Sigma-aldrich Co., St. Louis, Mo., USA) stock solution with the reaction buffer to concentrations of 20 μM and 40 μM, respectively. An enzyme solution was prepared by diluting PI3Kδ (#14˜604; Upstate™ kit) with the substrate solution to the concentration of 0.2 μg/ml (final reaction concentration: 0.1 μg/ml).
(§3) The test groups were prepared by dissolving each compound in 100% DMSO at 40× the final concentration and then diluting 10-fold with the reaction buffer. 5 μl of each diluted test group solution was transferred to a 384 well low flange white flat bottom microplate (#3572, Corning Life Sciences, Lowell, Mass., USA). We performed centrifuge (1 minute, 1000 rpm) and shaking for 2 minutes after every solution-adding step in this experiment. Next, 10 μl of the enzyme solution was added to each well. A mixed solution of the substrate solution (10 μl) plus 5 μl of the 100% DMSO diluted solution without test compound (i.e., 10% DMSO solution) was used as a negative control. And also, a mixed solution of enzyme solution (10 μl) plus 5 μl of the 100% DMSO diluted solution without test compound (i.e., 10% DMSO solution) was used as a positive control. This plate was pre-incubated for 10 minutes in a 25° C. incubator. After the pre-incubation, the phosphorylation reaction was induced by adding 5 μl of the ATP solution and the plate was incubated for 30 minutes in a 25° C. incubator. This enzyme reaction was stopped by 5 μl of the stop solution and then 5 μl of the detection solution was added thereto. To obtain enough fluorescence responses, the plate was incubated for 2 hours in a 25° C. incubator protected from light.
(§4) The time-resolved fluorescence resonance energy transfer (TR-FRET) rate was measured (emission wavelength: 665 nm, 620 nm, excitation wavelength: 313 nm) by using a Flexstation3 Micro plate reader (Molecular Devices, USA). TR-FRET Rate was calculated based on the Equation 1 and using these TR-FRET Rates, % inhibition rate of each compound was calculated based on the Equation 2. The IC50 values, i.e., the concentration of a test compound that inhibits 50% of PI3Kδ activity in vitro, are generated by Softmax program (Molecular Devices, USA). TR-FRET Rate=(Signal at 665 nm emission wavelength/Signal at 620 nm emission wavelength)×10000 <Equation 1> % Inhibition Rate=[(TR-FRET Rate of the test group−TR-FRET Rate of the positive control group)/(TR-FRET Rate of the negative control group−TR-FRET Rate of the positive control group)]×100 <Equation 2>
(§5) The compounds of the present invention were assayed for the activities of PI3K subtypes, i.e., PI3Kα, PI3Kβ and PI3Kγ, using the same procedures as in Experimental Example 1. […]

[2] = molecular target: T2, PI3Kδ (p110δ/p85α)(h) (Homo sapiens, UniProt O00329); experiment: PI3K-HTRF in vitro enzyme assay, PI3Kδ; conditions: enzyme 0.1 μg/ml
T2 construct: purchased Upstate (Millipore Co, Billerica, Mass., USA) #14˜604
Protocol: as §1, §2, §3, §4

[3] = molecular target: T3, PI3Kα (p110α/p85α)(h) (Homo sapiens, UniProt P42336); experiment: PI3K-HTRF in vitro enzyme assay, PI3Kα; conditions: enzyme 0.1 μg/ml
T3 construct: purchased Upstate (Millipore Co) #14-602
Protocol: as §1, §2, §3, §4, §5

T3 sequence (P42336 whole entry): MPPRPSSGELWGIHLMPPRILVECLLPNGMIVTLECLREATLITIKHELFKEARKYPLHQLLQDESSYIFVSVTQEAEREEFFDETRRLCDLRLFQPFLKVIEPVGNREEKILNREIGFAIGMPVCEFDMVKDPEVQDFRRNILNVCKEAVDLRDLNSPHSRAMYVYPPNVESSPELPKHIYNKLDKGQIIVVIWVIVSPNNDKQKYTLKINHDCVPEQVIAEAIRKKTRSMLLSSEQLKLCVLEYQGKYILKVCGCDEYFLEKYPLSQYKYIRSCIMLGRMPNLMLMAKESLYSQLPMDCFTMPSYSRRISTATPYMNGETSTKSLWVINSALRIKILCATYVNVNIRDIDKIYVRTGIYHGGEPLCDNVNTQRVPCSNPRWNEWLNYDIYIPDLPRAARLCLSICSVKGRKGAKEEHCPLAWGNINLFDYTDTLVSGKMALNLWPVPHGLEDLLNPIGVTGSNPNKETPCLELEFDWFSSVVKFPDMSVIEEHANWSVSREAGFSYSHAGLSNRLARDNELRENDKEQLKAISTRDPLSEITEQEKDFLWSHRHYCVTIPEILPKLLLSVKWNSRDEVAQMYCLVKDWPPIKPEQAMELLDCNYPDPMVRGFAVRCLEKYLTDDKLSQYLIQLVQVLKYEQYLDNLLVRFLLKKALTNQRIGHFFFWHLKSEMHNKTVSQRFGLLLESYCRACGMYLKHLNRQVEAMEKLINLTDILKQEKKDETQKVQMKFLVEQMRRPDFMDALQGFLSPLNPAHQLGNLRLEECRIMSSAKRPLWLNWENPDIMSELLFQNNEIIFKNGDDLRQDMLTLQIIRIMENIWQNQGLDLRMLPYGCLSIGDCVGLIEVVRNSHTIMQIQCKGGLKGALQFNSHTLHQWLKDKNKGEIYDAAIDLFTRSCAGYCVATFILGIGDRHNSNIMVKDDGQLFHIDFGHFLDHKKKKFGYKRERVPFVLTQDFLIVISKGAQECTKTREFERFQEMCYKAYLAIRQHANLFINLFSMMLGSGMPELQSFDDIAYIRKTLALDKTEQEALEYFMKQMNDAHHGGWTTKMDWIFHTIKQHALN
T3 sequence (P27986 whole entry partner): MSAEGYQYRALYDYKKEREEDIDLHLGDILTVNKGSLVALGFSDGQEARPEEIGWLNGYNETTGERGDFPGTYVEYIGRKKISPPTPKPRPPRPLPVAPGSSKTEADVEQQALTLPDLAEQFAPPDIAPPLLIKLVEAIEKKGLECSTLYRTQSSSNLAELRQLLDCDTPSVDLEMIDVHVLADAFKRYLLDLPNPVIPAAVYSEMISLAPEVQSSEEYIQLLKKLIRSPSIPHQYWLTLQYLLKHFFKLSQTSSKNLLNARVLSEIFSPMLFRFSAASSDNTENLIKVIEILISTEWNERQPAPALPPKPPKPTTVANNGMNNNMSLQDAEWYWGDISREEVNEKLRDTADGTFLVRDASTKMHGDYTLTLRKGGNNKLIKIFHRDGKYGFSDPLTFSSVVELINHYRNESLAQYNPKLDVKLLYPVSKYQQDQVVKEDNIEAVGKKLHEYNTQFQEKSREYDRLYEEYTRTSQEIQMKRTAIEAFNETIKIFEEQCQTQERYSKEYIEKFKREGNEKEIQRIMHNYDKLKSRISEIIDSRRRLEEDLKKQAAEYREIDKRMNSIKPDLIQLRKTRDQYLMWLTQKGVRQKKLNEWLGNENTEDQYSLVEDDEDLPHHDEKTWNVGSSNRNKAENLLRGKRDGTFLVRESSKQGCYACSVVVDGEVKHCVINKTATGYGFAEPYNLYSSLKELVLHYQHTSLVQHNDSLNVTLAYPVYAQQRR
T1 sequence (P48736 whole entry): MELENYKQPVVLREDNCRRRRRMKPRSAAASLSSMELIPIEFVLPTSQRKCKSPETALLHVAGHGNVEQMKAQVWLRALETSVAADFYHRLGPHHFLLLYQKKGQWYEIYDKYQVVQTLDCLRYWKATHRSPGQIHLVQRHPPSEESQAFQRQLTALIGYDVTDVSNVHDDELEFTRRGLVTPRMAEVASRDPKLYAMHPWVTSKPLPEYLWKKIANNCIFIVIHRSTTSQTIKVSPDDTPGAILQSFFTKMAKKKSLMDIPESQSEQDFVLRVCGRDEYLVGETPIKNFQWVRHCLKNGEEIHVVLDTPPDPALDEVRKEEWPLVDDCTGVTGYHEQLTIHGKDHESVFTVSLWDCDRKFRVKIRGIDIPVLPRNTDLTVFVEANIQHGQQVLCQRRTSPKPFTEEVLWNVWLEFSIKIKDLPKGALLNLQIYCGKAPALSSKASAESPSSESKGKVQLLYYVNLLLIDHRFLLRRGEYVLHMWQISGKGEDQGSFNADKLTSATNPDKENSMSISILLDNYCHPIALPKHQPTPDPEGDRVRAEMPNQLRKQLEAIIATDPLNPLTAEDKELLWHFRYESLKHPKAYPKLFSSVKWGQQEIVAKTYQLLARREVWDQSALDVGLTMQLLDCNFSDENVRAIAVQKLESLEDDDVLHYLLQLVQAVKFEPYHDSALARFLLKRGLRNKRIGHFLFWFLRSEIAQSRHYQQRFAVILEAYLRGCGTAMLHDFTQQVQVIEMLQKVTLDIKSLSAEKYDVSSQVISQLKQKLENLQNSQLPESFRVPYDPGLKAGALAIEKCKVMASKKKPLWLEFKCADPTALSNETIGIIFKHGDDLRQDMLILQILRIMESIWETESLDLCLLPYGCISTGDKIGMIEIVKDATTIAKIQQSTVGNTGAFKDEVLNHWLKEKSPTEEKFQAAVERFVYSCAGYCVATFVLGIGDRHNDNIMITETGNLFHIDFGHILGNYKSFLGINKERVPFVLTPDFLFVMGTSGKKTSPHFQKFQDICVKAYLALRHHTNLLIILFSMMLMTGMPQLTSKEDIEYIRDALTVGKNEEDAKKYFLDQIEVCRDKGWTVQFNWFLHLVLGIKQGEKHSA
T2 sequence (O00329 whole entry): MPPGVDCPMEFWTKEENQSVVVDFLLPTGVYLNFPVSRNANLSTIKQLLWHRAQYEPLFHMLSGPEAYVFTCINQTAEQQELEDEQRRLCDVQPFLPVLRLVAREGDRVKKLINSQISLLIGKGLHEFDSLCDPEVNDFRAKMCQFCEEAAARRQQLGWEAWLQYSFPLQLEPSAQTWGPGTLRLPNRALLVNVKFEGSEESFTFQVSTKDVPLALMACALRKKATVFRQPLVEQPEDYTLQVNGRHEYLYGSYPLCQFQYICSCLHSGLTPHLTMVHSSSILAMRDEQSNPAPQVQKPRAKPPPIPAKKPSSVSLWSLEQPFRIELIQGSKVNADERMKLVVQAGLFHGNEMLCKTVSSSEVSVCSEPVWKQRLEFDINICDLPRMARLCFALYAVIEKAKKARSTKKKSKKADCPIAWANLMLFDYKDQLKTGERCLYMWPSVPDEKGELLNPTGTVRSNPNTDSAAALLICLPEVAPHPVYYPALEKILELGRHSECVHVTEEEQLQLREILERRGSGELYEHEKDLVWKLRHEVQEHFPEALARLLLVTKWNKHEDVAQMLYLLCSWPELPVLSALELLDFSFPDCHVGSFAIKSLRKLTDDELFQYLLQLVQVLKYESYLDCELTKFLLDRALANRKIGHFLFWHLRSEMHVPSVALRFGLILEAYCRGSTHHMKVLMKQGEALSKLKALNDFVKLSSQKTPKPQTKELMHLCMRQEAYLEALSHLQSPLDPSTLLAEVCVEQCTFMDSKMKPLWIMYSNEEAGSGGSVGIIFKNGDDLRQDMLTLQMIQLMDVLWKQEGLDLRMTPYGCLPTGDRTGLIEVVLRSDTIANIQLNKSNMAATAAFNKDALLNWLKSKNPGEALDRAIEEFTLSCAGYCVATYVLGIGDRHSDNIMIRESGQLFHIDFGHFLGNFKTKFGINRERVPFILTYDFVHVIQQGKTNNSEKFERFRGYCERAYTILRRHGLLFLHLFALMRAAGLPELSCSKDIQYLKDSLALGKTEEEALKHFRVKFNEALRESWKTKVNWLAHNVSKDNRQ
T2 sequence (P27986 whole entry partner): as the sequence (P27986 whole entry partner) above

Row | Structure (SMILES) | IC50 [1] | IC50 [2] | IC50 [3]
1 | COc1ncc(-c2cccc3nc([C@@H](Nc4ncnc5ccc(C#N)cc45)C4CC4)n(-c4ccccc4)c(=O)c23)cn1 [Example 15, (S)-4-((cyclopropyl(5-(2-methoxypyrimidin-5-yl)-4-oxo-3-phenyl-3,4-dihydroquinazolin-2-yl)methyl)amino)quinazoline-6-carbonitrile] | 364 nM | 17 nM | 751 nM
2 | CC(C)[C@H](Nc1ncnc2cccc(F)c12)c1cc2cccc(-c3cncnc3)c2c(=O)n1-c1ccccc1 [Example 45, (S)-3-(1-((5-fluoroquinazolin-4-yl)amino)-2-methylpropyl)-2-phenyl-8-(pyrimidin-5-yl)isoquinolin-1(2H)-one] | > 1000 nM | 17 nM | 
3 | N#Cc1ccc2ncnc(N[C@H](c3nc4cccc(-c5cncnc5)c4c(=O)n3-c3ccccc3)C3CC3)c2c1 [Example 14, (S)-4-((cyclopropyl(4-oxo-3-phenyl-5-(pyrimidin-5-yl)-3,4-dihydroquinazolin-2-yl)methyl)amino)quinazoline-6-carbonitrile] | 537 nM | 3 nM | 841 nM
4 | CC(C)[C@H](Nc1ncnc2cccc(F)c12)c1nc2cccc(-c3cncnc3)c2c(=O)n1-c1ccccc1 [Example 28, (S)-2-(1-((5-fluoroquinazolin-4-yl)amino)-2-methylpropyl)-3-phenyl-5-(pyrimidin-5-yl)quinazolin-4(3H)-one] |  | 19 nM | 
5 | CC[C@H](Nc1ncnc2ccc(C#N)cc12)c1nc2cccc(-c3cncnc3)c2c(=O)n1-c1ccccc1 [Example 4, (S)-4-((1-(4-oxo-3-phenyl-5-(pyrimidin-5-yl)-3,4-dihydroquinazolin-2-yl)propyl)amino)quinazoline-6-carbonitrile] | 3630 nM | 14 nM | 2210 nM
6 | CC[C@H](Nc1ncnc2cccc(F)c12)c1nc2cccc(-c3cncnc3)c2c(=O)n1-c1ccccc1 [Example 24, (S)-2-(1-((5-fluoroquinazolin-4-yl)amino)propyl)-3-phenyl-5-(pyrimidin-5-yl)quinazolin-4(3H)-one] | 4280 nM | 17 nM | 8120 nM
7 | CC(C)[C@H](Nc1ncnc2cccc(F)c12)c1nc2cccc(-c3cnc(N)nc3)c2c(=O)n1-c1ccccc1 [Example 29, (S)-5-(2-aminopyrimidin-5-yl)-2-(1-((5-fluoroquinazolin-4-yl)amino)-2-methylpropyl)-3-phenylquinazolin-4(3H)-one] | 7610 nM | 13 nM | 2010 nM
8 | CC[C@H](Nc1ncnc2ccc(C#N)cc12)c1nc2cccc(-c3cnc(SC)nc3)c2c(=O)n1-c1ccccc1 [Example 8, (S)-4-((1-(5-(2-(methylsulfanyl)pyrimidin-5-yl)-4-oxo-3-phenyl-3,4-dihydroquinazolin-2-yl)propyl)amino)quinazoline-6-carbonitrile] | 1720 nM | 18 nM | 787 nM
9 | CC[C@H](Nc1ncnc2ccc(C#N)cc12)c1nc2cccc(-c3cnc(OC)nc3)c2c(=O)n1-c1ccccc1 [Example 5, (S)-4-((1-(5-(2-methoxypyrimidin-5-yl)-4-oxo-3-phenyl-3,4-dihydroquinazolin-2-yl)propyl)amino)quinazoline-6-carbonitrile] | 2150 nM | 14 nM | 1010 nM
10 | CC(C)[C@H](Nc1ncnc2ccc(C#N)cc12)c1nc2cccc(-c3cnc(N)nc3)c2c(=O)n1-c1ccccc1 [Example 13, (S)-4-((1-(5-(2-aminopyrimidin-5-yl)-4-oxo-3-phenyl-3,4-dihydroquinazolin-2-yl)-2-methylpropyl)amino)quinazoline-6-carbonitrile] | 2890 nM | 24 nM | 1480 nM
11 | CC[C@H](Nc1ncnc2ccc(C#N)cc12)c1cc2cccc(-c3cnc(OC)nc3)c2c(=O)n1-c1ccccc1 [Example 40, (S)-4-((1-(8-(2-methoxypyrimidin-5-yl)-1-oxo-2-phenyl-1,2-dihydroisoquinolin-3-yl)propyl)amino)quinazoline-6-carbonitrile] | 237 nM | 2 nM | 908 nM
12 | Cc1ncc(-c2cccc3cc([C@@H](Nc4ncnc5cccc(F)c45)C(C)C)n(-c4ccccc4)c(=O)c23)cn1 [Example 47, (S)-3-(1-((5-fluoroquinazolin-4-yl)amino)-2-methylpropyl)-8-(2-methylpyrimidin-5-yl)-2-phenylisoquinolin-1(2H)-one] | > 1000 nM | 23 nM | 
13 | CCC[C@H](Nc1ncnc2ccc(C#N)cc12)c1nc2cccc(-c3cnc(C)nc3)c2c(=O)n1-c1ccccc1 [Example 9, (S)-4-((1-(5-(2-methylpyrimidin-5-yl)-4-oxo-3-phenyl-3,4-dihydroquinazolin-2-yl)butyl)amino)quinazoline-6-carbonitrile] | 1150 nM | 18 nM | 2850 nM
14 | CC[C@H](Nc1ncnc2cccc(F)c12)c1nc2cccc(-c3cnc(F)nc3)c2c(=O)n1-c1ccccc1 [Example 26, (S)-5-(2-fluoropyrimidin-5-yl)-2-(1-((5-fluoroquinazolin-4-yl)amino)propyl)-3-phenylquinazolin-4(3H)-one] | 3420 nM | 17 nM | 4470 nM
15 | Cc1ncc(-c2cccc3cc([C@H](C)Nc4ncnc5ccc(C#N)cc45)n(-c4ccccc4)c(=O)c23)cn1 [Example 36, (S)-4-((1-(8-(2-methylpyrimidin-5-yl)-1-oxo-2-phenyl-1,2-dihydroisoquinolin-3-yl)ethyl)amino)quinazoline-6-carbonitrile] | 86 nM | 5 nM | 730 nM
16 | C[C@H](Nc1ncnc2ccc(C#N)cc12)c1nc2cccc(-c3cncnc3)c2c(=O)n1-c1ccccc1 [Example 1, (S)-4-((1-(4-oxo-3-phenyl-5-(pyrimidin-5-yl)-3,4-dihydroquinazolin-2-yl)ethyl)amino)quinazoline-6-carbonitrile] | 922 nM | 20 nM | 3550 nM
17 | C[C@H](Nc1ncnc2cccc(F)c12)c1nc2cccc(-c3cncnc3)c2c(=O)n1-c1ccccc1 [Example 22, (S)-2-(1-((5-fluoroquinazolin-4-yl)amino)ethyl)-3-phenyl-5-(pyrimidin-5-yl)quinazolin-4(3H)-one] | 5940 nM | 30 nM | 
18 | C[C@H](Nc1ncnc2cccc(F)c12)c1cc2cccc(-c3cnc(F)nc3)c2c(=O)n1-c1ccccc1 [Example 44, (S)-8-(2-fluoropyrimidin-5-yl)-3-(1-((5-fluoroquinazolin-4-yl)amino)ethyl)-2-phenylisoquinolin-1(2H)-one] | 2010 nM | 18 nM | 5630 nM
19 | CCOc1ncc(-c2cccc3nc([C@@H](Nc4ncnc5ccc(C#N)cc45)C4CC4)n(-c4ccccc4)c(=O)c23)cn1 [Example 16, (S)-4-((cyclopropyl(5-(2-ethoxypyrimidin-5-yl)-4-oxo-3-phenyl-3,4-dihydroquinazolin-2-yl)methyl)amino)quinazoline-6-carbonitrile] | 434 nM | 4 nM | 1290 nM
20 | CC[C@H](Nc1ncnc2ccc(C#N)cc12)c1cc2cccc(-c3cnc(C)nc3)c2c(=O)n1-c1ccccc1 [Example 42, (S)-4-((1-(8-(2-methylpyrimidin-5-yl)-1-oxo-2-phenyl-1,2-dihydroisoquinolin-3-yl)propyl)amino)quinazoline-6-carbonitrile] | 654 nM | 1 nM | 1630 nM
